# Measured values from ChEMBL document CHEMBL1201862, “PubChem BioAssay data set” (2004).
# Calls of active or inactive are those of the source.
# Assays:
# [1] = biological target: T1, Sentrin-specific protease 1 (Homo sapiens, UniProt Q9P0U3); experiment: SENP1 catalytic domain blockers, concentration series – biochemical, kinetic FRET, dose response (AID 651697); assay type: functional; settings: read-out: IC50_Mean
# T1 sequence (Q9P0U3 whole entry): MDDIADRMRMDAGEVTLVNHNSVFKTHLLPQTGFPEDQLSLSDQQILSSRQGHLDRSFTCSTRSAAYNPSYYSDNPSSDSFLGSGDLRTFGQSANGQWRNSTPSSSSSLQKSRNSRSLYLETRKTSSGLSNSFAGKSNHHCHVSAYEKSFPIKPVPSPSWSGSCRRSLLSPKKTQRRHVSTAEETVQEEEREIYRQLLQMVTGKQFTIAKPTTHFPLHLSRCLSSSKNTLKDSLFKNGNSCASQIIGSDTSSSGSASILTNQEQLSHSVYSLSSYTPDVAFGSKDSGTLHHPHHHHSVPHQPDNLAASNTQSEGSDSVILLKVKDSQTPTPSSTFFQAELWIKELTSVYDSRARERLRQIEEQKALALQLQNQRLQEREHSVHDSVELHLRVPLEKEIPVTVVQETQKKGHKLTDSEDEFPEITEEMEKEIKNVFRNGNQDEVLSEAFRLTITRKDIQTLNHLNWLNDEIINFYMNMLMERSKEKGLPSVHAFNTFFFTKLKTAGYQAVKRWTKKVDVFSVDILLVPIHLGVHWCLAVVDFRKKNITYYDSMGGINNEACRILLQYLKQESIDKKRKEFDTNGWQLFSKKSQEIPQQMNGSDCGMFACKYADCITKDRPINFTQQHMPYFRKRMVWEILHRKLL
# [2] = biological target: T1, Sentrin-specific protease 1; experiment: Dose response confirmation of small molecule inhibitors of the catalytic domain of the SUMO protease, SENP1 in a FRET assay.; assay type: functional; settings: read-out: IC50_Mean
# Vero = experiment: viability loss in Vero cells – cell-based, plate reader, cherry-pick samples, cytotoxicity control, dose response (AID 687020); assay type: functional; settings: Chlorocebus sabaeus
# cells [3] = assay type: functional, cell-based
# [4] = biological target: T2, Trace amine-associated receptor 1 (Homo sapiens, UniProt Q96RJ0); experiment: Counterscreen for agonists of the human trace amine associated receptor 1 (hTAAR1): Fluorescence-based cell-based high throughput dose response assay to identify hTAAR1 agonist that also desensitize TAAR1 receptor response.; assay type: functional
# T2 sequence (Q96RJ0 whole entry): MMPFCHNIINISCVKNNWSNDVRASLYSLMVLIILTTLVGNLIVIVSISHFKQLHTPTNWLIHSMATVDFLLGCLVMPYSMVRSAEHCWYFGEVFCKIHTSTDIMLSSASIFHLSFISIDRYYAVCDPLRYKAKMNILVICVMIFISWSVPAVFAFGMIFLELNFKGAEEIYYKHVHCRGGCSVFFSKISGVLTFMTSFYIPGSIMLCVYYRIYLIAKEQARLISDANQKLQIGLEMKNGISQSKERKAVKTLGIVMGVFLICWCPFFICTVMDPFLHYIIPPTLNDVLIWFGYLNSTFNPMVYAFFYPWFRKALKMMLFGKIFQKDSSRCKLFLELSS
# cells [5] = assay type: functional, cell-based; remark: listed apart in the source
# [6] = biological target: T2, Trace amine-associated receptor 1; experiment: Fluorescence-based cell-based high throughput dose response assay to identify agonists of the human trace amine associated receptor 1 (TAAR1).; assay type: functional
# [7] = T. cruzi growth inhibition in host cells, dose response, cell-based, plate reader, dry powder, set 2 (AID 652275); assay type: functional
# [8] = biological target: T3, Small ubiquitin-related modifier 1 (Homo sapiens, UniProt P63165); experiment: SUMO1 protein interaction blockers, potency – biochemical, fluorescence polarization, uHTS hits, dose response (AID 624382); assay type: functional; settings: read-out: IC50_Mean
# T3 sequence (P63165 whole entry): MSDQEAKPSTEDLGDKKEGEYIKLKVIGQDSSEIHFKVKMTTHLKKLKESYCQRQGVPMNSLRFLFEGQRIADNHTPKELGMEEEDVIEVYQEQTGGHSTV
# [9] = biological target: T3, Small ubiquitin-related modifier 1; experiment: SUMO1 protein-protein binding blockers, potency – biochemical, FRET, dose response (AID 624383); assay type: functional; settings: read-out: IC50_Mean
# Beta-galactosidase = Beta-galactosidase (Escherichia coli, UniProt Q8VNN2); experiment: Dose response counterscreen for EBI2 assay utilizing the enzyme, b-galactosidase.; assay type: functional
# Sequence of Beta-galactosidase (Q8VNN2 whole entry): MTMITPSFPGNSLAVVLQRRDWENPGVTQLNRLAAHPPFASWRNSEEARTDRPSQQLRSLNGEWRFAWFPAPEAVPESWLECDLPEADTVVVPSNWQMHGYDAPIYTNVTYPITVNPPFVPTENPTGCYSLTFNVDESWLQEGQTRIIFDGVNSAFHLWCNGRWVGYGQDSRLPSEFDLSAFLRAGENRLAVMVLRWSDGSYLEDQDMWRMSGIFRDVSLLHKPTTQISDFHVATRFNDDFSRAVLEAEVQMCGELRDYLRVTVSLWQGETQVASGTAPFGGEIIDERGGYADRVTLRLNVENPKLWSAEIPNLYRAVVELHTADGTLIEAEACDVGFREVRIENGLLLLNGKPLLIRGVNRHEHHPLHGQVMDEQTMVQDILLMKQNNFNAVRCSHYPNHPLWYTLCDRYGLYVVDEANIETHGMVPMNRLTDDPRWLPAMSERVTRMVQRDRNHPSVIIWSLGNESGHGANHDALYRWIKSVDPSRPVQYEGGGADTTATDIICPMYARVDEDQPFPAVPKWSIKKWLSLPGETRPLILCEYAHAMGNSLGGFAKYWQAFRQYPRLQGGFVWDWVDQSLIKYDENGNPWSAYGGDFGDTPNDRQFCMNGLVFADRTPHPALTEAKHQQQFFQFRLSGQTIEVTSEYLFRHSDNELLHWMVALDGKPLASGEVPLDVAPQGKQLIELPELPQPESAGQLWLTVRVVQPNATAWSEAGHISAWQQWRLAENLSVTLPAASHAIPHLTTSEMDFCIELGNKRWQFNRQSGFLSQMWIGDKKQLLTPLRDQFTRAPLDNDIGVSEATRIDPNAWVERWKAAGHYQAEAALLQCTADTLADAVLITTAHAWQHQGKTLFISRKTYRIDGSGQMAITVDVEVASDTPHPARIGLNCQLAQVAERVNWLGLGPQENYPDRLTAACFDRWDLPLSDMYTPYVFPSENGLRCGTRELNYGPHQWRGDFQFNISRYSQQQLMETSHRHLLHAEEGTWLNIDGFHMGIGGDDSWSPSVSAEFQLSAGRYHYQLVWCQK
# [10] = viability of uninfected HEp-2 cells – cell-based, HTS, cytotoxicity control for RSV inhibitor project, dose response (AID 2410); assay type: functional; settings: human respiratory syncytial virus
# [11] = biological target: Endoplasmic reticulum aminopeptidase 1 (Homo sapiens, UniProt Q9NZ08); experiment: inhibition of human ERAP1 enzyme activity – biochemical, cherry-pick, set 2, plate reader, dose response (AID 743314)
# Sequence of Endoplasmic reticulum aminopeptidase 1 (Q9NZ08 whole entry): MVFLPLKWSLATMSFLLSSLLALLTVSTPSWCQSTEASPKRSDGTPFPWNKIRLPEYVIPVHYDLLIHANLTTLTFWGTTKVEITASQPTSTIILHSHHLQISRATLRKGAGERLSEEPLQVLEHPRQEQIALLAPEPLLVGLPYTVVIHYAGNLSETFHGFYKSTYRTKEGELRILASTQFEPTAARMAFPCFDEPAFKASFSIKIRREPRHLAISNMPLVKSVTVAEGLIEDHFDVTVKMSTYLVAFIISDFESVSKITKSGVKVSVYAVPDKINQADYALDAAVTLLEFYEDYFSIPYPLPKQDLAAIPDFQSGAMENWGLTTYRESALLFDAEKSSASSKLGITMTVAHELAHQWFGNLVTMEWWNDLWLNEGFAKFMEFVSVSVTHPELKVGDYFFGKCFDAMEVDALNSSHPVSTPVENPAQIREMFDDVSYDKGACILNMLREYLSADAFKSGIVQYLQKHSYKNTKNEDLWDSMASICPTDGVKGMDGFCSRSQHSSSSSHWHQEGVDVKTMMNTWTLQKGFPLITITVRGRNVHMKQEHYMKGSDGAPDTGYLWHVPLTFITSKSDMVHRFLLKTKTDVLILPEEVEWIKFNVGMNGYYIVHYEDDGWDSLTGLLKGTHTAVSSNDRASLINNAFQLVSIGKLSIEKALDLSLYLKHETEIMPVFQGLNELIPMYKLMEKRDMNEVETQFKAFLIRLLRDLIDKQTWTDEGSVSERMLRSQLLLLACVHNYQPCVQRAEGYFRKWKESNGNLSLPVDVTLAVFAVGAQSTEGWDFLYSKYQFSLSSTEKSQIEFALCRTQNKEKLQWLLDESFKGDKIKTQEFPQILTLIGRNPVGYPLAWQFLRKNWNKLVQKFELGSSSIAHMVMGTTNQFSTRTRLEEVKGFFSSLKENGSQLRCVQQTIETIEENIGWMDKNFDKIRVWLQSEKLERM
# [12] = biological target: T4, Histone-lysine N-methyltransferase NSD2 (Homo sapiens, UniProt O96028); assay type: biochemical
# T4 sequence (O96028 whole entry): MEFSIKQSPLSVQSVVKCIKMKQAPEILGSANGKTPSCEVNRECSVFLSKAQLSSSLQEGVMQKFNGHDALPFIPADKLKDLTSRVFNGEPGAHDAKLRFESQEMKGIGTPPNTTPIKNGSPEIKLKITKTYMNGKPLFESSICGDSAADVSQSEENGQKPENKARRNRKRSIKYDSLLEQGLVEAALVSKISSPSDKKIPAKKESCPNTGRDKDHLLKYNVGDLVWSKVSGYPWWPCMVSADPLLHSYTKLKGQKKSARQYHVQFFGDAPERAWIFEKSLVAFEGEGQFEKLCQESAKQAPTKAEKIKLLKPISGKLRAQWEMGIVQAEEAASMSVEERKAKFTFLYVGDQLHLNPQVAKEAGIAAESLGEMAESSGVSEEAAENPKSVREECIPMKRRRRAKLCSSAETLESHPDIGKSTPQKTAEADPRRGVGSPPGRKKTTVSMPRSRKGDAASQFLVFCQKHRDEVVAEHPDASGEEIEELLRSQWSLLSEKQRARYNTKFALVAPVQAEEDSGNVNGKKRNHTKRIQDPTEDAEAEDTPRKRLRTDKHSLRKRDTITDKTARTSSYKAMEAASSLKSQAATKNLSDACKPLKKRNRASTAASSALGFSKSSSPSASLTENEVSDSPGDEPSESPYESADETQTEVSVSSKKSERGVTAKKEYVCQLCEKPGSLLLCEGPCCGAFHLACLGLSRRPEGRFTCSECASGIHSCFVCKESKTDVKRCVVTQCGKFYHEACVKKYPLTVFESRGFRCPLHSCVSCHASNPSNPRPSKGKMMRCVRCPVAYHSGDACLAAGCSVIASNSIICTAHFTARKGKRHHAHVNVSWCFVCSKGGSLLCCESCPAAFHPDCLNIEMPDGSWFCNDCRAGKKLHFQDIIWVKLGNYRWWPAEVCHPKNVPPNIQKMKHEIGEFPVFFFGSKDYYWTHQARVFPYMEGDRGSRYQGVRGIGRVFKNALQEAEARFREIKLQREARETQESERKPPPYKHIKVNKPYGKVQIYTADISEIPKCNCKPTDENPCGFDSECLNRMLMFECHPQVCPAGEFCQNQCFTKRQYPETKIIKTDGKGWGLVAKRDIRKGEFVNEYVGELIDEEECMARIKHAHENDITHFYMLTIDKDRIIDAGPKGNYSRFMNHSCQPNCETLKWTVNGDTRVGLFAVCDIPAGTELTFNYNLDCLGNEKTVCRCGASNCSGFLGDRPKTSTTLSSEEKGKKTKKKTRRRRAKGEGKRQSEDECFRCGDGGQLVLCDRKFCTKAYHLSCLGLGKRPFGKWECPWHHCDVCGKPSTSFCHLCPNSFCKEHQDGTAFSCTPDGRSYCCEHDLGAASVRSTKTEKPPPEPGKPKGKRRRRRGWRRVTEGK
# [13] = biological target: DNA dC->dU-editing enzyme APOBEC-3G (Homo sapiens, UniProt Q9HC16); assay type: functional;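 note: Dose-response counterscreen measuring inhibition of APOBEC3G DNA deaminase activity, run while confirming APOBEC3A inhibitors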
# Sequence of DNA dC->dU-editing enzyme APOBEC-3G (Q9HC16 whole entry): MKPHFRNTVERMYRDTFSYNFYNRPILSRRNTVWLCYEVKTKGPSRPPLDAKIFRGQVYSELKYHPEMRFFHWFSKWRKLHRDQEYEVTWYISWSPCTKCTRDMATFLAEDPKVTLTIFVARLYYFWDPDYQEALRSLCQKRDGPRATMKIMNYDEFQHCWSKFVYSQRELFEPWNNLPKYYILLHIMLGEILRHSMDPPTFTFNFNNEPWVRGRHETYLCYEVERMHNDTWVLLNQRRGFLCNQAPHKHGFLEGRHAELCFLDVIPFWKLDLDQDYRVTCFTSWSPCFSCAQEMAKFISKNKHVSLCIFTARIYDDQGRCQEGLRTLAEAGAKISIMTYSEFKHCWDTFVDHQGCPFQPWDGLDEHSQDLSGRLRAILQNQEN
# Large T antigen = Large T antigen (Simian virus 40, UniProt P03070); assay type: functional, Betapolyomavirus macacae;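 note: Confirmatory-stage PubChem screen for compounds that inhibit SV40 T antigen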
# Sequence of Large T antigen (P03070 whole entry): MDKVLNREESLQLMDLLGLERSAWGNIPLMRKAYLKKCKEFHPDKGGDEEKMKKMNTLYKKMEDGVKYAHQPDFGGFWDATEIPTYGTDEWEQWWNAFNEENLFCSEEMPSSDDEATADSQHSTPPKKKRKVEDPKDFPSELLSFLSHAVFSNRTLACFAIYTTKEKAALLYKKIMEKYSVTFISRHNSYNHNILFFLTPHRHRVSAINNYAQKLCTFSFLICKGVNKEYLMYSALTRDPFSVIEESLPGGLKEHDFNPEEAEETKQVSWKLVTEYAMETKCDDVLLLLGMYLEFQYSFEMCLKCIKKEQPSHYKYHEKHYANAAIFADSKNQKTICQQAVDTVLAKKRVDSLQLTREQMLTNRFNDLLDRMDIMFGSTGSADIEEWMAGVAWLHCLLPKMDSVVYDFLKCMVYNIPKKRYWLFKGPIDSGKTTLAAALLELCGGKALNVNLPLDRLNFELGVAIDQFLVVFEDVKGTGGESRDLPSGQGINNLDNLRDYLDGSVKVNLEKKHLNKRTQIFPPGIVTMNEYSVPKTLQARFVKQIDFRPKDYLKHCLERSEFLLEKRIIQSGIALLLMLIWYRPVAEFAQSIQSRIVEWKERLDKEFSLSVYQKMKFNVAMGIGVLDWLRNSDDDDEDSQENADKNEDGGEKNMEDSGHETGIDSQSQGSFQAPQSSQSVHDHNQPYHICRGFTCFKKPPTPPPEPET
# [14] = biological target: DNA dC->dU-editing enzyme APOBEC-3A (Homo sapiens, UniProt P31941); experiment: Dose Response confirmation of small molecule APOBEC3A DNA Deaminase Inhibitors via a fluorescence-based single-stranded DNA deaminase assay. [Related pubchem assays (depositor defined):AID493011, AID493024]; assay type: functional
# Sequence of DNA dC->dU-editing enzyme APOBEC-3A (P31941 whole entry): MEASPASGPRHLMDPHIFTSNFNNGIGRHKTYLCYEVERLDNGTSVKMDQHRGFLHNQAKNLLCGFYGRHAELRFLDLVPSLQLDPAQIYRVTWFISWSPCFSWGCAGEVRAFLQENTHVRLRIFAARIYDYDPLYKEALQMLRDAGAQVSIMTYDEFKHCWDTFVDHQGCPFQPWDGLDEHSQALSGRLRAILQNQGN
# Caspase-6 = biological target: T5, Caspase-6 (Homo sapiens, UniProt P55212); experiment: inhibition of CASP6 peptide cleavage – biochemical, VEID-R110 fluorescence, cherry-pick, dose response (AID 720632)
# T5 sequence (P55212 whole entry): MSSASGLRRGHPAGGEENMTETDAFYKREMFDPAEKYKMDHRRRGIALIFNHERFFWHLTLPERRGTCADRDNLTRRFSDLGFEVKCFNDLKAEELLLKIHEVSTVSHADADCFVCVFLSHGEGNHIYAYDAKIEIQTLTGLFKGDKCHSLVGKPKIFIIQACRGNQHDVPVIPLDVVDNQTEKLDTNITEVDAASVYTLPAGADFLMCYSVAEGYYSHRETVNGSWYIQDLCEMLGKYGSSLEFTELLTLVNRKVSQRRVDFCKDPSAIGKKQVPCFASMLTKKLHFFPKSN
# [15] = biological target: T6, RNA-binding protein pos-1 (Caenorhabditis elegans, UniProt G5EF15); experiment: disruptors of C. elegans POS-1 RNA interaction – biochemical, fluorescence polarization, dose response (AID 1964);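 note: purified POS-1 fused to maltose binding protein made in E. coli; potency of compounds blocking POS-1 binding to fluorescent RNA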
# T6 sequence (G5EF15 whole entry): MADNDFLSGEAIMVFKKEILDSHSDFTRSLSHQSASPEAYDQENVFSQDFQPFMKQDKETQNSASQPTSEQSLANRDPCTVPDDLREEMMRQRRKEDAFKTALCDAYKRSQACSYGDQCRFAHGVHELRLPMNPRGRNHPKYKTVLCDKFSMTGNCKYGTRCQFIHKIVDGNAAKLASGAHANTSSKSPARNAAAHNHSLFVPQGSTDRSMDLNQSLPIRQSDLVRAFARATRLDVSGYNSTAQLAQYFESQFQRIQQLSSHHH
# [16] = biological target: T7, Zinc finger protein mex-5 (Caenorhabditis elegans, UniProt Q9XUB2); experiment: potency of MEX-5 RNA-binding blockers – biochemical, C. elegans, fluorescence polarization, dose response (AID 1960)
# T7 sequence (Q9XUB2 whole entry): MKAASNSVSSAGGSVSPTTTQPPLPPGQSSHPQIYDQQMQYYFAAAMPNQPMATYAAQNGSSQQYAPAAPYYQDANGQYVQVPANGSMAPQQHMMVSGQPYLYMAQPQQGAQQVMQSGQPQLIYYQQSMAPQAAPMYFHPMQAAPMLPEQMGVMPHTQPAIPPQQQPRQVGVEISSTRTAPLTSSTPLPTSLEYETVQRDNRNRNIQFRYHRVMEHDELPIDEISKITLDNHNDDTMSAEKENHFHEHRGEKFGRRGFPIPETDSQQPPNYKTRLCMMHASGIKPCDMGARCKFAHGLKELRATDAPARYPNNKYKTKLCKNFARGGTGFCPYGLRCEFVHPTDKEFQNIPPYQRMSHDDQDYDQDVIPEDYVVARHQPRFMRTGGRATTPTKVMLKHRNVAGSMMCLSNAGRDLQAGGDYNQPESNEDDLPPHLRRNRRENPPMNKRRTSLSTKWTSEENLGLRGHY
structure (smiles),measurement,setting,value
Nc1ccc2c(c1)C(=O)N(CCCC(=O)O)C2=O,IC50,[1],13.1 µM (active)
same,IC50,[2],19 µM (active)
COCCNc1nc(Nc2ccccc2Cl)c2sccc2n1,AC50,Vero,6.94 µM (active)
COc1cccc(C(=O)N[C@@H](Cc2cccnc2)C(=O)N2CCC[C@H]2C(=O)NCCc2ccccc2Cl)c1,EC50,cells [3],> 29.9 µM (inactive)
same,IC50,[4],4.58 µM (active)
same,IC50,cells [5],> 29.9 µM (inactive)
same,EC50,[6],2.18 µM (active)
O=C(Nc1ccccc1)Nc1ccno1,EC50,cells [3],> 29.9 µM (inactive)
same,IC50,[4],4.63 µM (active)
same,IC50,cells [5],> 29.9 µM (inactive)
same,EC50,[6],4.65 µM (active)
C[C@H]1CN([C@@H](C)CO)C(=O)c2cccc(NC(=O)c3ccncc3)c2O[C@@H]1CN(C)Cc1ccc(F)c(Cl)c1,AC50,[7],0.00198 µM (active)
COc1ccc(C(CNC(=O)COc2cc(C)ccc2Cl)N2CCCCC2)cc1 (stereo not given),AC50,Vero,17.6 µM (active)
Cc1cccc(-c2ccc([C@H]3[C@H](CO)N4CCCCN(Cc5cncnc5)C[C@@H]34)cc2)c1,AC50,[7],0.198 µM (active)
CC(=O)c1ccc(OCCCC(=O)OCC(=O)Nc2ccc3[nH]c(O)nc3c2)cc1,IC50,[8],> 66.6 µM (inactive)
same,IC50,[9],16.9 µM (active)
O=C(c1cc2ccccc2o1)N1CCN(S(=O)(=O)c2ccc(Cl)s2)CC1,IC50,Beta-galactosidase,> 80 µM (inactive)
Cc1c(-c2ccccc2)c(=O)oc2cc(O)ccc12,CC50,[10],42.4 µM (active)
same,AC50,[11],4.79 µM (active)
C#CCNC(=O)C[C@@H]1C[C@@]2(C(=O)OC)CCCCC=C2N(Cc2cccc3ccccc23)C1=O,AC50,Vero,36.6 µM (active)
O=C(O)C1C2CCC(C2)C1C(=O)NCCc1ccc(F)cc1 (stereo not given),EC50,cells [3],> 29.9 µM (inactive)
same,IC50,[4],> 29.9 µM (inactive)
same,IC50,cells [5],> 29.9 µM (inactive)
same,EC50,[6],14.8 µM (inactive)
CC(C)N1C[C@@H](CNCc2ccc(Oc3ccccc3)cc2)Oc2c(NC(=O)c3ccncc3)cccc2C1=O,AC50,[7],0.00666 µM (active)
Nc1ccc(Nc2ccccc2)c(S(=O)(=O)O)c1,AC50,[12],8.41 µM (active)
same,IC50,[8],> 66.6 µM (inactive)
same,IC50,[13],34.1 µM (active)
same,IC50,[9],12.8 µM (active)
same,IC50,Large T antigen,7.15 µM (active)
same,IC50,[14],16.5 µM (active)
same,AC50,Caspase-6,1.22 µM (active)
same,EC50,[15],108 µM (active)
same,EC50,[16],34 µM (active)
O=C(CSc1nnc(-c2ccc(O)cc2)n1Cc1ccccc1)NNC(=O)c1ccc(Br)cc1,IC50,Beta-galactosidase,> 80 µM (inactive)
